Patent US20240300987A1, “TRAP1 INHIBITOR AND USE THEREOF” (SMARTIN BIO INC., priority 2021, published 2024)
Entries after “also recorded” stand apart in the source; their conditions may differ.

How the values were obtained:
[1] = target: T1, human full-length TRAP1 protein (Homo sapiens, UniProt Q12931); test: Fluorescence polarization (FP) analysis using SB-TM2 probe (client-binding site); settings: for IC50: FP analysis using SB-TM2; for Activity compared to that of SMX: TRAP1 binding, relative to SMX of the same table; for binding capacity compared to that of SMX (MitoQ): result in words
T1 construct: containing human full-length TRAP1 protein (400 nM); hexahistidine tag followed by TEV protease cleavage site (N, cleaved yes); made in house; host or cells: E. coli BL21 (DE3)
T1 sequence (Q12931 60-704): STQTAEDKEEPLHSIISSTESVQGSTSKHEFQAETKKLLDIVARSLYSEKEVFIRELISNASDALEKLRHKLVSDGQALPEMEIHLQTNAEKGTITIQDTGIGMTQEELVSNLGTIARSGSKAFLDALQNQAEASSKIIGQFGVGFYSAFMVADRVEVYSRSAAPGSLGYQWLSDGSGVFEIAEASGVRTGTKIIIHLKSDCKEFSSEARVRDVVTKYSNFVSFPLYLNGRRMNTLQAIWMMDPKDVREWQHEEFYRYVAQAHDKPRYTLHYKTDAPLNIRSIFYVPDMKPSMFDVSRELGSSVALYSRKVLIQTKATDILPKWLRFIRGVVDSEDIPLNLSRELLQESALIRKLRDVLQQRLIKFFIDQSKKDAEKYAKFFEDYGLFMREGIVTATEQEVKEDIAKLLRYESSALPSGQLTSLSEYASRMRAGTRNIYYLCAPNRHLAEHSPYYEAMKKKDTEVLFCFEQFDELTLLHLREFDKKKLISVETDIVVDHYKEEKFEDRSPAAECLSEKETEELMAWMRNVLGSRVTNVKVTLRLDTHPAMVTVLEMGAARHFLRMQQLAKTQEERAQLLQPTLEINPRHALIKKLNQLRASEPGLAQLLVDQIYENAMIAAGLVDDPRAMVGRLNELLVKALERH
Method: The substance to be analyzed (at a final volume of 100 μL) was added to FP buffer ([…], 2.7 mM KCl, 4.3 mM Na2HPO4, 1.4 mM KH2PO4 (pH 7.3), 1 mM DTT, 2 mM MgCl2, and 0.1 mg/mL BSA) containing human full-length TRAP1 protein (400 nM) and SB-TM2 probe (100 nM) and then reacted at room temperature for 1 hour (96-well plate). Using a SYNERGY NEO microplate reader, FP was measured at an excitation wavelength set to 440 nm and an emission wavelength set to 500 nm.

TRAP1 [2] = target: T2, TRAP1 (Homo sapiens, UniProt Q12931); test: ATPase activity assay (PiColorLock Gold Phosphate Detection Kit); format: biochemical; set-up: hexahistidine tag followed by TEV protease cleavage site (N, cleaved yes); made in house; host or cells: E. coli BL21 (DE3); settings: result in words
T2 sequence (Q12931 60-704): T1 sequence (Q12931 60-704)
Method: The ATPase activity of TRAP1 was measured using the PiColorLock Gold Phosphate Detection Kit (Abcam). Then, 0.5 µM TRAP1 (wild-type or mutation) was pre-incubated along with inhibitors at various concentrations for 30 minutes and then incubated with 0.2 mM ATP at 37° C. for 3 hours in ATPase activity assay buffer containing 50 mM Tris-HCl, 20 mM KCl, and 6 mM MgCl (pH 7.4). Next, 20 µL of a mixture of a PiColorLock Gold reagent and an accelerator (100:1) was added to each sample (100 μL). After 5 minutes of incubation, 10 μL of a stabilizer was added to stop color development. Absorbance was measured at 620 nm using a microplate reader (Synergy NEO, BioTek). The background signal was normalized by subtracting the absorbance of unreacted samples.

22Rv1 cells = test: In vivo mouse xenograft; set-up: species or system mice; settings: 3 mg/Kg intraperitoneally daily
Method: Immunodeficient athymic nude mice (male, 8 weeks old) were purchased from OrientBio. The mice were maintained in a pathogen-free facility (12-hour dark/light cycle) at the UNIST In Vivo Research Center and supplied with standard diet and water. All animal experiments were approved by UNIST ([…]-19-11). 22Rv1 cells (1×10^7) were injected subcutaneously into both sides of the nude mice. When the tumor size reached approximately 100 mm^3, 3 mg/Kg drugs (MitoQ, SB-U014, and SB-U015) and vehicle (DMSO) dissolved in 20% cremophor EL (Sigma) in PBS were administered intraperitoneally daily. The tumor volume was measured daily using an electronic caliper and calculated using the following equation: V=½× (width) 2× length. When the experiment was completed, animals were euthanized, and the tumor was collected for histology and western blot. Band intensities were quantified using ImageJ software (National Institute of Health, USA). In this case, western blot was performed in the same manner as described above.

HIF1α = test: Drug activity assay using MIO-M1 HRE/GFP cell line under hypoxia; format: cell-based; settings: for IC50: MIO-M1, 24 h, HIF1α inhibitory activity in MIO-M1 cells, 1% O2 24 hours; for Activity compared to that of SMX: HIF1α inhibition, relative to SMX of the same table
Method: After transfection (jetPRIME kit) of MIO-M1 Müller cells with 5HRE/GFP plasmid (Addgene, #46926), the cells transfected with the plasmid were selected using 1 mg/ml of G418 (Neomycin), a selectable marker. A stable cell line was constructed by selecting cells, growing in a colony form, from single cells. The prepared MIO-M1-HRE/GFP stable cell line was dispensed into a 96-well plate and treated with drugs at different concentrations the next day. After being exposed to a hypoxic environment (1% O2) for 24 hours, the GFP (Ex/Em: 488/507) fluorescence signal was measured using a SYNERGY NEO microplate reader (BioTek Instrument). The relative fluorescence value was calculated on the basis of 100% of the negative control group.

TRAP1 [3] = target: T2, TRAP1; test: Protein expression analysis by western blot in 22Rv1 cells, TRAP1 inhibition markers; format: cell-based; set-up: endogenous in cells; host or cells: 22Rv1; settings: 5 µM of each compound, 2 hours
Method: Human cancer cell line 22Rv1 was purchased from the American Type Culture Collection (ATCC) and maintained as recommended by the supplier. Briefly, cancer cells were incubated in a DMEM or RPMI medium (GIBCO) containing 10% fetal bovine serum (FBS; ATCC) and 1% penicillin/streptomycin (GIBCO) at 37° C. in a humidified atmosphere of 5% CO2. The cells were not incubated for more than 6 months.
The 22Rv1 cells were treated with 5 µM of each compound, cultured for 2 hours, and then analyzed by western blot.
Cell lysates were separated by SDS-PAGE and transferred to a PVDF membrane. The membrane was blocked with 10% skim milk in TBST (TBS containing 0.05% Tween-20) for 1 hour at room temperature and incubated with primary antibodies overnight at 4° C. The membrane was washed with TBST three times for 1 hour and incubated with secondary antibodies (1:5000) diluted in 10% skim milk in TBST for 1 hour. The membrane was washed with TBST three times and visualized using an enhanced chemiluminescence detection kit (BioRad).

OIR mice = test: Oxygen-induced retinopathy (OIR) model, CD31 whole-mount staining of retina; format: in vivo; settings: intravitreal injection at P12 or eye drop administration P12 to P17
Excerpt: As TRAP1+/+(wild-type), TRAP1+/−(hetero), and TRAP1−/− (knockout) experimental mice, Black6 J strain mice were used. On the 7th day after birth, a baby mouse and a mother mouse were placed in an in vivo chamber (Coy-lab) and supplied with high oxygen (75% O2). On the 12th day after birth, the baby mouse was taken out of the in vivo chamber. Then, a surrogate mother was put thereinto, and normal oxygen (21% O2) was supplied. Then, the eyeball of the baby mouse was removed on the 17th day after birth and used for experiments.
In the process of forming the in vivo oxygen-induced retinopathy (OIR) model, the baby mouse was treated with eye drops for 6 days, from the day when being taken out to normal oxygen after being supplied with high oxygen until the day their eyes were collected (on the 12th day to 17th day after birth). Treatment was performed three times a day at intervals of 4 hours. As a drug treatment method, Mito Q was diluted to a concentration of 1 mM in Liposic and dropped 10 uL into the eyes of the baby mouse. Then, the eyes were allowed to blink for 1 minute. After wiping the residual amount outside the eyeball with a cotton swab, the mouse was returned to the care of the mother mouse. […]

[4] = 22Rv1 xenograft in nude mice, compared to DMSO

SMILES	SDHB and SIRT3 expression (TRAP1 inhibition) (TRAP1 [3])	IC50 ([1]; Table 1, alkyl-TPPs)	Activity compared to that of SMX ([1]; Table 1)	binding capacity compared to that of SMX (MitoQ) [1]	IC50 (HIF1α; Table 6, alkyl-TPPs)	Activity compared to that of SMX (HIF1α; Table 6)	further results
COc1cc(C)c(CCCCCCCCCC[P+](c2ccccc2)(c2ccccc2)c2ccccc2)cc1OC [SB-U015, (10-(4,5-Dimethoxy-2-methylphenyl)decyl)triphenylphosphonium]							IC50 ([1]; Table 4, other synthetic compounds): 1830 ± 285 nM; Activity compared to that of SMX ([1]; Table 4): 0.22; TRAP1 ATPase activity with increasing concentration (TRAP1 [2]): did not show a tendency that the ATPase activity decreased in a concentration-dependent manner; tumor size (22Rv1 cells; [4]): the tumor size became smaller; tumor weight (22Rv1 cells; [4]): the tumor weight decreased; Akt, Cdk4, and Hsp70 in tumors (western blot) (22Rv1 cells; 22Rv1 xenograft tumors): without causing changes in Akt, Cdk4, and Hsp70; SDHB, SIRT3, p-AMPK and CHOP in tumors (western blot) (22Rv1 cells; 22Rv1 xenograft tumors): decreases in SDHB and SIRT3, activated AMPK (p-AMPK), and induced the mitochondrial unfolded protein response (CHOP); IC50 (HIF1α; Table 9, other synthetic compounds): 88.7 ± 5.8 nM; Activity compared to that of SMX (HIF1α; Table 9): 3.14
CCCCCCCCCCCCCCCC[P+](c1ccccc1)(c1ccccc1)c1ccccc1 [TPP-16, Hexadecyltriphenylphosphonium]	strong effects	309 ± 26 nM	2.01	superior to that of SMX; also recorded: twice as strong as that of SMX	30 ± 26 nM	15.59	binding capacity compared to that of SMX (MitoQ) ([1]; listed as hexadecyl-TPP): superior to that of SMX; also recorded: twice as strong as that of SMX
COC1=C(OC)C(=O)C(C[P+](c2ccccc2)(c2ccccc2)c2ccccc2)=C(C)C1=O [MitoQ^S, ((4,5-Dimethoxy-2-methyl-3,6-dioxocyclohexa-1,4-dien-1-yl)methyl)triphenylphosphonium]							avascular and neovascular areas in the retina of the OIR model (OIR mice): both avascular and neovascular areas are significantly reduced; also recorded: significantly reduces both avascular and neovascular areas
CCCCCCCCCCCCCC[P+](c1ccccc1)(c1ccccc1)c1ccccc1 [TPP-14, Tetradecyltriphenylphosphonium]	strong effects	384 ± 39.2 nM	1.62	superior to that of SMX	34 ± 39.2 nM	13.76	
